Data reported in patent US7737136B2 (N.V. Organon, priority 2002, dated 2010).

Key:
[1] = target: T1, human progesterone receptor-B (Homo sapiens, UniProt P06401); test: Progesterone receptor-B transactivation assay, antiprogestagenic activity (inhibition of luciferase transactivation induced by Org 2058); format: cell-based; conditions: in the presence of 1 nM (16α)-16-ethyl-21-hydroxy-19-norpregn-4-ene-3,20-dione (Org 2058); read-out: Anti-progestagenic activity EC50
T1 construct: expressed in transfected cells; host or cells: Chinese hamster ovary (CHO) cells, line CHO-PRB-pMMTV-LUC 1E2-A2
T1 sequence (P06401 1-933): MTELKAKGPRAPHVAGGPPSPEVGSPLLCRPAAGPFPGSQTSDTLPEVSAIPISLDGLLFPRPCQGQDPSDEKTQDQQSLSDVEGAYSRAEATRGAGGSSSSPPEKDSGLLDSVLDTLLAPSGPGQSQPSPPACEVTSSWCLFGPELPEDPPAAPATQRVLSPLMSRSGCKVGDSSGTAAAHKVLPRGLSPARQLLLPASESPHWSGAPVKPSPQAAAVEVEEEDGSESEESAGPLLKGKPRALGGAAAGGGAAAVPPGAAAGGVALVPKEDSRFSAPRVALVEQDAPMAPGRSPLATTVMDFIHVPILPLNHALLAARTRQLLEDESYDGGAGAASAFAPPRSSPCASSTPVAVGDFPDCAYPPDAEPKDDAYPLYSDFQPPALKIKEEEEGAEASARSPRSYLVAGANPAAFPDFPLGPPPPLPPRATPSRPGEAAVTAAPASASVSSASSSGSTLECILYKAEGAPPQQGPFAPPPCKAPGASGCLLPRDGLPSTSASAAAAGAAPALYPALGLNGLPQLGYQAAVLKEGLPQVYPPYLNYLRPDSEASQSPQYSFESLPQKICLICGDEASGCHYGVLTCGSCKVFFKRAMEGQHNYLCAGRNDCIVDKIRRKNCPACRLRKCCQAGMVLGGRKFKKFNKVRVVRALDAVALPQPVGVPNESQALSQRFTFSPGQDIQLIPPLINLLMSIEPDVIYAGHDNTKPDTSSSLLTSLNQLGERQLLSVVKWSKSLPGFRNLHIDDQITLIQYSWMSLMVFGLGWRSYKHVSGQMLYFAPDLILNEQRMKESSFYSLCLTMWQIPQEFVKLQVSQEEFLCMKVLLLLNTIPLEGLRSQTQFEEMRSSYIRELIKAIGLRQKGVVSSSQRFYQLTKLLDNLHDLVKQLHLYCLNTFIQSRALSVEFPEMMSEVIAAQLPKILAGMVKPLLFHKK
Description: (§1) The (anti-)progestagenic activity of a compound of the invention (EC 50 and intrinsic activity) was determined in an in vitro bioassay of Chinese hamster ovary (CHO) cells stably transfected with the human progesterone receptor-B expression plasmid and with a reporter plasmid in which the MMTV-promoter is linked to the luciferase reporter gene. […] The cells were cultured with charcoal-treated supplemented defined bovine calf serum from Hyclone (Utah, USA) in Dulbecco's Modified Eagles Medium/Nutrient Mixture F-12 (DMEM/HAM F12 in ratio 1:1) from Gibco (Paisley, UK).

[2] = target: T1, human progesterone receptor-B; test: Progesterone receptor-B transactivation assay, progestagenic (agonist) activity, CHO-PRB-pMMTV-LUC 1E2-A2 cells; format: cell-based; conditions: CHO cells stably transfected with human progesterone receptor-B and MMTV-luciferase reporter; read-out: Progestagenic activity EC50
Description: as §1

| Compound | EC50 [1] [nM] | EC50 [2] [nM] |
| --- | --- | --- |
| CC(=S)N[C@H]1CCCN2c3cc(Cl)ccc3Oc3ccccc3[C@H]12 (relative stereo) [Example 21] | 100 to 10000 | 10 to 100 |
| O=C(N[C@H]1CCCN2c3cc(Cl)ccc3Cc3ccccc3[C@H]12)C(F)(F)F (relative stereo) [Example 8, trans-N-(7-Chloro-1,2,3,4,10,14b-hexahydrodibenzo[c,f]pyrido[1,2-a]azepin-1-yl)-2,2,2-trifluoroacetamide] | 10 to 100 | < 10 |
| COCCN[C@H]1CCCN2c3cc(Cl)ccc3Oc3ccccc3[C@H]12 (relative stereo) [Example 48, trans-7-Chloro-2,3,4,14b-tetrahydro-N-(2-methoxyethyl)-1H-dibenzo[b,f]pyrido[1,2-d][1,4]oxazepine-1-amine] | 10 to 100 | 100 to 10000 |
| N=C(N[C@H]1CCCN2c3cc(Cl)ccc3Oc3ccccc3[C@H]12)C(F)(F)F (relative stereo) [Example 29, trans-N-(7-Chloro-2,3,4,14b-tetrahydro-1H-dibenzo[b,f]pyrido[1,2-d][1,4]oxazepin-1-yl)-2,2,2-trifluoroacetimidamide] | 10 to 100 | 10 to 100 |
| O=C(N[C@H]1CCCN2c3cc(Cl)c(Cl)cc3Oc3ccccc3[C@H]12)C(F)(F)F (relative stereo) [Example 38A, trans-N-(7,8-Dichloro-2,3,4,14b-tetrahydro-1H-dibenzo[b,f]pyrido[1,2-d][1,4]oxazepin-1-yl)-2,2,2-trifluoroacetamide] | 100 to 10000 | 10 to 100 |

The remaining lines, values ahead:

| EC50 [1] [nM] | EC50 [2] [nM] | Compound |
| --- | --- | --- |
| 100 to 10000 | 100 to 10000 | O=C(N[C@H]1CCCN2c3cc(Cl)c(Br)cc3Oc3ccccc3[C@H]12)C(F)(F)F (relative stereo) [Example 39, trans-N-(8-Bromo-7-chloro-2,3,4,14b-tetrahydro-1H-dibenzo[b,f]pyrido[1,2-d][1,4]oxazepin-1-yl)-2,2,2-trifluoroacetamide] |
| < 10 | < 10 | O=C(NC1CCCN2c3cc(Cl)ccc3Oc3ccccc3C12)C(F)F (stereo not drawn) [13 (1S14bR isomer)] |
| 10 to 100 | 100 to 10000 | CC(C)(C)OC(=O)CN[C@H]1CCCN2c3cc(Cl)ccc3Sc3ccccc3[C@H]12 (relative stereo) [Example 49, 1,1-Dimetylethyl trans-2-[(7-chloro-2,3,4,14b-tetrahydro-1H-dibenzo[b,f]pyrido[1,2-d][1,4]thiazepin-1-yl)amino]acetate] |
